Measurements as given in ChEMBL document CHEMBL5260850, “The exploration of aza-quinolines as hematopoietic prostaglandin D synthase (H-PGDS) inhibitors with low brain exposure” (Bioorg Med Chem, 2020).
Values after ≈ are worked out from the molar mass of the structure shown. Active and inactive are the calls of the source. No cut-off for these calls is given here.

Assays:
[1] = Dose normalized AUC in mouse at 3 mg/kg, po; assay type: ADME, organism-based; set-up: unit not given here; conditions: in vivo
[2] = Solubility of the compound in FaSSIF at pH 6.5 measured after 4 hrs by HPLC-UV analysis; assay type: ADME
[3] = Apparent permeability, Papp of the compound at pH 7.4 incubated for 3 hrs by AMP based liquid chromatography; assay type: ADME; conditions: not told
[4] = Oral bioavailability in mouse at 3 mg/kg; assay type: ADME, organism-based; conditions: in vivo
[5] = Ratio of drug level in brain to blood in mouse at 1 mg/kg, iv; assay type: ADME, organism-based; conditions: read-out: BBR
[6] = Terminal half life in rat at 0.4 mg/kg, iv; assay type: ADME, organism-based; conditions: in vivo, read-out: beta t1/2 (converted)
[7] = Oral bioavailability in rat at 2.4 mg/kg; assay type: ADME, organism-based; conditions: in vivo
[8] = Terminal half life in dog at 0.5 mg/kg, iv; assay type: ADME, organism-based, Canis lupus familiaris; conditions: in vivo, read-out: beta t1/2 (converted)
[9] = Clearance in dog at 0.5 mg/kg, iv; assay type: ADME, organism-based, Canis lupus familiaris; conditions: in vivo
[10] = Volume of distribution at steady state in dog at 0.5 mg/kg, iv; assay type: ADME, organism-based, Canis lupus familiaris; conditions: in vivo, read-out: Vdss
[11] = target: Voltage-dependent L-type calcium channel subunit alpha-1C (Homo sapiens, UniProt Q13936); test: Inhibition of Cav1.2 channel (unknown origin) upto 10000 nM; conditions: 10 µM
[12] = target: Potassium voltage-gated channel subfamily KQT member 1 (Homo sapiens, UniProt P51787); test: Inhibition of Kv7.1 channel (unknown origin) upto 10000 nM; conditions: 10 µM
[13] = target: Amine oxidase [flavin-containing] A (Homo sapiens, UniProt P21397); test: Inhibition of MAO-A (unknown origin) upto 10000 nM; conditions: 10 µM
Sequence of Amine oxidase [flavin-containing] A (P21397 whole entry): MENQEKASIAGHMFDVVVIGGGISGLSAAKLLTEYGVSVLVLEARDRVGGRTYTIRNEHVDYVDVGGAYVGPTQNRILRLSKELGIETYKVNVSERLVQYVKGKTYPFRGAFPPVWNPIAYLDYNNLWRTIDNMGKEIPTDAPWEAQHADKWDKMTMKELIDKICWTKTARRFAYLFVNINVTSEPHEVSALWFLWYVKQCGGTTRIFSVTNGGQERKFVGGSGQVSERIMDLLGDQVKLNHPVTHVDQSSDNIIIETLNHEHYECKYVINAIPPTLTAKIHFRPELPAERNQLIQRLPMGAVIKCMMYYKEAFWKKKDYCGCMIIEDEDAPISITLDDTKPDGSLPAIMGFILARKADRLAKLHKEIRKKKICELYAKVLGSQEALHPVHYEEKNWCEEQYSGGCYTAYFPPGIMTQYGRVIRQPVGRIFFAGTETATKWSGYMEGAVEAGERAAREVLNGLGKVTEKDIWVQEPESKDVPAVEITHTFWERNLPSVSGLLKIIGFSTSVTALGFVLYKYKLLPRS

[14] = target: Bile salt export pump (Homo sapiens, UniProt O95342); test: Inhibition of BSEP (unknown origin) upto 10000 nM; conditions: 10 µM
[15] = target: Solute carrier organic anion transporter family member 1B1 (Homo sapiens, UniProt Q9Y6L6); test: Inhibition of OATP1B1 (unknown origin) upto 10000 nM; conditions: 10 µM
Sequence of Solute carrier organic anion transporter family member 1B1 (Q9Y6L6 whole entry): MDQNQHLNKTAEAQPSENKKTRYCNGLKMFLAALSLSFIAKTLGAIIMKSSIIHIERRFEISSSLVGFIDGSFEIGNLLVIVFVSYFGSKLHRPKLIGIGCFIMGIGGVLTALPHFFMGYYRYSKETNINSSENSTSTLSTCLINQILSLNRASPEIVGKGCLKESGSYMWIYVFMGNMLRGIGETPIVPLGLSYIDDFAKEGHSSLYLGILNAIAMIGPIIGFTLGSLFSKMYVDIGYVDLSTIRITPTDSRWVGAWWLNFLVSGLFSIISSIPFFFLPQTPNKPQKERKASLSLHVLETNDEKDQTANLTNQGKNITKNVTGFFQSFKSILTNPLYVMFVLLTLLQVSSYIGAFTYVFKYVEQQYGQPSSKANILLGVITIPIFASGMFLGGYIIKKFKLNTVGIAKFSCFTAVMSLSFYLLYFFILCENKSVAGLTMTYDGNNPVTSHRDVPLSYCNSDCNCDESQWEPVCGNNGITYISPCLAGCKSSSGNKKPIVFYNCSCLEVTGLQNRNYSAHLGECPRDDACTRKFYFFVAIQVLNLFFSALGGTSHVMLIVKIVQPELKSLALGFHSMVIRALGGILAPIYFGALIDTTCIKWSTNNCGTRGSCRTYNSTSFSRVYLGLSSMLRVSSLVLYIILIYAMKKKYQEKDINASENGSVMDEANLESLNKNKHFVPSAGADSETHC

[16] = AUC (0 to last) in eccentric contraction-induced muscle injury C57BL/6N mouse model administered orally for 10 mins prior to unilateral eccentric contraction and QD for 16 days thereafter; assay type: ADME; set-up: time 16 day, route po; conditions: in vivo, po
[17] = Free AUC (0 to last) in eccentric contraction-induced muscle injury C57BL/6N mouse model administered orally for 10 mins prior to unilateral eccentric contraction and QD for 16 days thereafter; assay type: ADME; conditions: in vivo, po, 384 h, time 16 day
[18] = Ratio of drug level in muscle to plasma in C57BL/6N mouse administered orally for 10 mins prior to unilateral eccentric contraction and QD for 16 days thereafter; assay type: toxicity, cell-free, Muscle tissue/plasma; conditions: route po, time 16 day
[19] = Genotoxicity in Salmonella typhimurium in presence of metabolic activation by Ames test; assay type: toxicity; conditions: salmonella enterica subsp. enterica serovar typhimurium
[20] = Toxicity in rat assessed as tolerance at 300 mg/kg, po administered as single dose; assay type: organism-based; conditions: in vivo
[21] = Toxicity in Wistar Han rat assessed as morphological changes in heart at 30 mg/kg/day, po administered QD for 7 days by microscopic analysis; assay type: organism-based; conditions: in vivo, 168 h, time 7 day
[22] = Toxicity in Wistar Han rat assessed as morphological changes in thymus at 30 mg/kg/day, po administered QD for 7 days by microscopic analysis; assay type: organism-based; conditions: in vivo, 168 h, time 7 day
[23] = Toxicity in Wistar Han rat assessed as increased lymphocytolysis in thymus at 100 mg/kg/day, po administered QD for 7 days by microscopic analysis; assay type: organism-based; conditions: in vivo, 168 h, time 7 day
[24] = AUC in Wistar Han rat at 100 mg/kg/day, po QD for 7 days; assay type: ADME, organism-based; set-up: time 7 day, dose 100 mg/kg/day, route po; conditions: in vivo
[25] = Toxicity in dog assessed as organ morphological changes upto 30 mg/kg/day, po QD for 4 days by microscopic analysis; assay type: organism-based, Canis lupus familiaris; conditions: in vivo, 96 h, time 4 day
[26] = Toxicity in dog assessed as decrease in body temperature at 75 mg/kg/day, po QD for 4 days; assay type: organism-based, Canis lupus familiaris; conditions: in vivo, 96 h, time 4 day
[27] = Toxicity in dog assessed as discoloration in small intestine and oesophagus at 75 mg/kg/day, po QD for 4 days by macroscopic analysis; assay type: organism-based, Canis lupus familiaris; conditions: in vivo, 96 h, time 4 day
[28] = Toxicity in dog assessed as hemorrhage of zona fasciculata in adrenal gland at 75 mg/kg/day, po QD for 4 days by microscopic analysis; assay type: organism-based, Canis lupus familiaris; conditions: in vivo, 96 h, time 4 day
[29] = Toxicity in dog assessed as clinical pathological changes by measuring increase in red cell mass at 75 mg/kg/day, po QD for 4 days; assay type: organism-based, Canis lupus familiaris; conditions: in vivo, 96 h, time 4 day
[30] = Toxicity in dog assessed as clinical pathological changes by measuring increase in cardiac troponin 1 level at 75 mg/kg/day, po QD for 4 days; assay type: organism-based, Canis lupus familiaris; conditions: in vivo, 96 h, time 4 day
[31] = AUC in dog at 75 mg/kg/day, po QD for 4 days; assay type: ADME, organism-based, Canis lupus familiaris; set-up: time 4 day, dose 75 mg/kg/day, route po; conditions: in vivo
[32] = system: Mus musculus; test: Anti-inflammatory activity against C57BL6/N mouse assessed as EC50 required for reduction in LPS-induced PGD2 level in skeletal muscle administered orally with compound and 1 hr later treated with LPS and measured after 30 mins by LC-MS/MS analysis; assay type: functional, organism-based, C57BL/6N
[33] = target: 5-hydroxytryptamine receptor 2A (Homo sapiens) (UniProt P28223); conditions: dose <= 10000.0 nM
Description: Inhibition of 5-HT2A receptor (unknown origin) upto 10000 nM

[34] = target: 5-hydroxytryptamine receptor 2B (Homo sapiens) (UniProt P41595); conditions: dose <= 10000.0 nM
Sequence of 5-hydroxytryptamine receptor 2B (Homo sapiens) (P41595 whole entry): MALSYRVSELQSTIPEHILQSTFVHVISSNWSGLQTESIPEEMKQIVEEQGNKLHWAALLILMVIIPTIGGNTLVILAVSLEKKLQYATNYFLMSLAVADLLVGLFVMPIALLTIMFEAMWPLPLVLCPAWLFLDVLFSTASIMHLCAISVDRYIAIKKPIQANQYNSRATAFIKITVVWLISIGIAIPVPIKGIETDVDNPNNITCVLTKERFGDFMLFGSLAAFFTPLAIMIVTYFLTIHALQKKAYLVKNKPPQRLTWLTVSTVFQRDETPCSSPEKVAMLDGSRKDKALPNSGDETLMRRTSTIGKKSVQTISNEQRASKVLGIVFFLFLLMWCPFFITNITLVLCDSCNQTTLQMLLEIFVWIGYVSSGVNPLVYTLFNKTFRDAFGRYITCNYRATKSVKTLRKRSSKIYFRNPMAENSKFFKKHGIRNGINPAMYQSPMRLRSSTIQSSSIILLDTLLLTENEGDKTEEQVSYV
Description: Inhibition of 5-HT2B receptor (unknown origin) upto 10000 nM

[35] = target: Kappa-type opioid receptor (Homo sapiens) (UniProt P41145); conditions: dose <= 10000.0 nM
Sequence of Kappa-type opioid receptor (Homo sapiens) (P41145 whole entry): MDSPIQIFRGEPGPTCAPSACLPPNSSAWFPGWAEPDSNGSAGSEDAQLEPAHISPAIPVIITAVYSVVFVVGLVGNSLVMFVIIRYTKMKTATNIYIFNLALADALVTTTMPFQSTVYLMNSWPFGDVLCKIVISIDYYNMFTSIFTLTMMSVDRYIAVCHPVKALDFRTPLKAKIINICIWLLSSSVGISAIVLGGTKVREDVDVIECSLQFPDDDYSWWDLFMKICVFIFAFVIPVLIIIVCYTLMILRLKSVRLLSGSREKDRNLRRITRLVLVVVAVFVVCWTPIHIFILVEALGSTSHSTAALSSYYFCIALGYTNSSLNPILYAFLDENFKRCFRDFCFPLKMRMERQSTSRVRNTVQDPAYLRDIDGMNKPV
Description: Inhibition of kappa opioid receptor (unknown origin) upto 10000 nM

[36] = target: Mu-type opioid receptor (Homo sapiens) (UniProt P35372); conditions: dose <= 10000.0 nM
Sequence of Mu-type opioid receptor (Homo sapiens) (P35372 whole entry): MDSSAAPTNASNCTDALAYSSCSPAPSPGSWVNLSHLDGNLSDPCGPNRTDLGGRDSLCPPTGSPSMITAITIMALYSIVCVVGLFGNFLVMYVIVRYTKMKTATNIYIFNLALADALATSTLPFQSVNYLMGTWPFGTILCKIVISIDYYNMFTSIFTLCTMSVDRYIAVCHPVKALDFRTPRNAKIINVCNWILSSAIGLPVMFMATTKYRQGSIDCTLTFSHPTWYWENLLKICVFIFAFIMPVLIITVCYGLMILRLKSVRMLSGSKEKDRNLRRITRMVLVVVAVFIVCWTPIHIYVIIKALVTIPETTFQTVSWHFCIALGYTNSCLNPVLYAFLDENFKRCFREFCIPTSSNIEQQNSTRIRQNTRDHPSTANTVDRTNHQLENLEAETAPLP
Description: Inhibition of mu opioid receptor (unknown origin) upto 10000 nM

[37] = target: Cannabinoid receptor 1 (Homo sapiens) (UniProt P21554); conditions: dose <= 10000.0 nM
Sequence of Cannabinoid receptor 1 (Homo sapiens) (P21554 whole entry): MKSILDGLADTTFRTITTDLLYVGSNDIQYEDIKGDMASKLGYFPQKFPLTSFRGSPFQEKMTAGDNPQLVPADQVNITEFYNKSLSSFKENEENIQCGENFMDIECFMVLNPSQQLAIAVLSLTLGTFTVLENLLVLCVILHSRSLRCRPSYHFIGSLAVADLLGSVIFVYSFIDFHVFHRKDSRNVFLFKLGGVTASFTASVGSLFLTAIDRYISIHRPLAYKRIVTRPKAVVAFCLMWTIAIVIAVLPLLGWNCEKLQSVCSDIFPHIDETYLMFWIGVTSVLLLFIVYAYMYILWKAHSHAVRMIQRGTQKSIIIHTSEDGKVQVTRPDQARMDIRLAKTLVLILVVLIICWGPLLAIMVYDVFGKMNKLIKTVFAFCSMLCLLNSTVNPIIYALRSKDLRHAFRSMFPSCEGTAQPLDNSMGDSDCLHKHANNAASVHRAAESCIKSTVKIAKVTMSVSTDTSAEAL
Description: Inhibition of CB1 receptor (unknown origin) upto 10000 nM

[38] = target: Muscarinic acetylcholine receptor M2 (Homo sapiens) (UniProt P08172); conditions: dose <= 10000.0 nM
Sequence of Muscarinic acetylcholine receptor M2 (Homo sapiens) (P08172 whole entry): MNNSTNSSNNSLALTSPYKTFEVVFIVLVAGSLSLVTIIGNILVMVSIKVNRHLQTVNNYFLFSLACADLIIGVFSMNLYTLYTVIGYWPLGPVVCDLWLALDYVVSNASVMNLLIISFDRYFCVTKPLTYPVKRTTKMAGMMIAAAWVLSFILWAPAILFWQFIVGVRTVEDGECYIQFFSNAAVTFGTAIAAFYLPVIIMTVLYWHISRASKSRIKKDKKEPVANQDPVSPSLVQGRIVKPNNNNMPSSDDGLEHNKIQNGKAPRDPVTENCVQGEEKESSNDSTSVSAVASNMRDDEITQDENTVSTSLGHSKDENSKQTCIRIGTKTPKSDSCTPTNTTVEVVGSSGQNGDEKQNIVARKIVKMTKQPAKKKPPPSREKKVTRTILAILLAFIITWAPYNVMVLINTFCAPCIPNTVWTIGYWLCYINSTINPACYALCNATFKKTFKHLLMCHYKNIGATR
Description: Inhibition of muscarinic M2 receptor (unknown origin) upto 10000 nM

[39] = target: Mas-related G-protein coupled receptor member X2 (Homo sapiens) (UniProt Q96LB1); conditions: dose <= 10000.0 nM
Sequence of Mas-related G-protein coupled receptor member X2 (Homo sapiens) (Q96LB1 whole entry): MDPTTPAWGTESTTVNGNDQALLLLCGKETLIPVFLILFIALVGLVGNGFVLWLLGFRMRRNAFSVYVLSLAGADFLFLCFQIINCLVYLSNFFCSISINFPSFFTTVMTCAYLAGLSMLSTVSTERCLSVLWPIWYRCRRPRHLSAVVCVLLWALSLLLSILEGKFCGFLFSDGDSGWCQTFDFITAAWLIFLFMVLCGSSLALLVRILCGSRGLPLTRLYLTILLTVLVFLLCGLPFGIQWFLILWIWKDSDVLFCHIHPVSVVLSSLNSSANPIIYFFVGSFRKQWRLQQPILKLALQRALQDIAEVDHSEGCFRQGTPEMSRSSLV
Description: Inhibition of MRGPRX2 receptor (unknown origin) upto 10000 nM

[40] = target: GABA-A receptor; anion channel (Homo sapiens) (UniProt P14867+P47870+P18507+P28472+P48169+Q99928+Q9UN88+P34903+O00591+O14764+Q8N1C3+P18505+P78334+P47869+P31644+Q16445); conditions: dose <= 10000.0 nM
Description: Inhibition of GABAA receptor (unknown origin) upto 10000 nM

[41] = target: Acetylcholinesterase (Homo sapiens) (UniProt P22303); conditions: dose <= 10000.0 nM
Sequence of Acetylcholinesterase (Homo sapiens) (P22303 whole entry): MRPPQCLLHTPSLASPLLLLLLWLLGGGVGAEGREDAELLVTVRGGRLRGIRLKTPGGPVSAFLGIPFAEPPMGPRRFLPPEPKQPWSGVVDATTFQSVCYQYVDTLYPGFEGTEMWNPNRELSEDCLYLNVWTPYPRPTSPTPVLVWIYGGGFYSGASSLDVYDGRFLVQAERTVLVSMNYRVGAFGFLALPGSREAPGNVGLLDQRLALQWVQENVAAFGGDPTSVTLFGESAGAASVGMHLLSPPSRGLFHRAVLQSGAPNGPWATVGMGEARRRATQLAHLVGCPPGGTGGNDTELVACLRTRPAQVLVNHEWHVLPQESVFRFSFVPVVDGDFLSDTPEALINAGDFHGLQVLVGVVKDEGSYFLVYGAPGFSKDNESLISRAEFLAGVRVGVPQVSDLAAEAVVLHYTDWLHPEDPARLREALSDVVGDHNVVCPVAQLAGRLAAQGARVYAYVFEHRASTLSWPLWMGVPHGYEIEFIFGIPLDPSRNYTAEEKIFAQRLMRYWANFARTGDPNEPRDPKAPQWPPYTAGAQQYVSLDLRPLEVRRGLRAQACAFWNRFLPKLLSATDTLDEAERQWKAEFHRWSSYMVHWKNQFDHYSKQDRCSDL
Description: Inhibition of AChE (unknown origin) upto 10000 nM

[42] = target: Prostaglandin G/H synthase 2 (Homo sapiens) (UniProt P35354); conditions: dose <= 10000.0 nM
Sequence of Prostaglandin G/H synthase 2 (Homo sapiens) (P35354 whole entry): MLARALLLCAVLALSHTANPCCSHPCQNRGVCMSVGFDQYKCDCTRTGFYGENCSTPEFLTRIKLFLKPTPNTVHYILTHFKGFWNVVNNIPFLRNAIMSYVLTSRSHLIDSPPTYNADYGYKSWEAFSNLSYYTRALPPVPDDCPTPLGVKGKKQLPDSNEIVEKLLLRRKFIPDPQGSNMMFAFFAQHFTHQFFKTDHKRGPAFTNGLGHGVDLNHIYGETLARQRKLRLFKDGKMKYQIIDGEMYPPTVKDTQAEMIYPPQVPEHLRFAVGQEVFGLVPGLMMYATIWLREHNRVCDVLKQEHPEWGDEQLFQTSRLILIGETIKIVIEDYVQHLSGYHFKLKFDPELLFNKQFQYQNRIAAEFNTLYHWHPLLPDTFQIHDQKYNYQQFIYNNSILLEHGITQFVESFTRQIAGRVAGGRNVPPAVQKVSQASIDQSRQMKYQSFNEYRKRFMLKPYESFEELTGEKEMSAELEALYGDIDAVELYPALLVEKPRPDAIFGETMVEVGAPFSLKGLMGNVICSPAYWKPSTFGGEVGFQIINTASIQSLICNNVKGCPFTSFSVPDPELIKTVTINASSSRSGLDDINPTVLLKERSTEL
Description: Inhibition of COX-2 (unknown origin) upto 10000 nM

[43] = target: Tyrosine-protein kinase Lck (Homo sapiens) (UniProt P06239); conditions: dose <= 10000.0 nM
Description: Inhibition of LCK (unknown origin) upto 10000 nM

[44] = target: Phosphatidylinositol 4,5-bisphosphate 3-kinase catalytic subunit gamma isoform (Homo sapiens) (UniProt P48736); conditions: dose <= 10000.0 nM
Description: Inhibition of PI3K-gamma (unknown origin) upto 10000 nM

[45] = target: Sodium-dependent noradrenaline transporter (Homo sapiens) (UniProt P23975); conditions: dose <= 10000.0 nM
Description: Inhibition of NET (unknown origin) upto 10000 nM

With CC(C)(O)[C@H]1CC[C@H](NC(=O)c2cnc3nc(C4CC4)ccc3c2)CC1 the AUC/dose [1] was 1320, the solubility at 4 h [2] was 140 µg/mL (≈ 396 µM) and the Papp at 3 h [3] was 4.4 ×10⁻⁶ cm/s. For the same compound, the bioavailability [4] was 71%, the Kp [5] was 0.06 and the half-life [6] was 5.1 h. For the same compound, the bioavailability [7] was 100%, the half-life [8] was 6.2 h and the clearance [9] was 1.9 mL/min/kg. The Vd [10] was 1 L/kg, the “inhibition (INH)” value [11] was “Not Active” and the “inhibition (INH)” value [12] was “Not Active”. The “inhibition (INH)” value [13] was “Not Active”, the “inhibition (INH)” value [14] was “Not Active” and the “inhibition (INH)” value [15] was “Not Active”. The AUC(0-t) at 384 h [16] was 5.3 µg·h/mL, the fAUClast [17] was 1.2 µg·h/mL and the Kp at 384 h [18] was 0.56. For the same compound, the Activity [19] was “Non-Toxic”, the Activity [20] was “Non-Toxic” and the Activity [21] was “Non-Toxic”. The Activity [22] was “Non-Toxic”, the Activity [23] was “Toxic” and the AUC at 168 h [24] was 820 µg·h/mL. The Activity [25] was “Non-Toxic”, the Activity [26] was “Toxic” and the Activity [27] was “Toxic”. The Activity [28] was “Toxic”, the Activity [29] was “Toxic” and the Activity [30] was “Toxic”. For the same compound, the AUC at 96 h [31] was 3600 µg·h/mL, the EC50 [32] was 1.4 ng/g and the inhibition [33] was “inactive”. The inhibition [34] was “inactive”, the inhibition [35] was “inactive” and the inhibition [36] was “inactive”. For the same compound, the inhibition [37] was “inactive”, the inhibition [38] was “inactive” and the inhibition [39] was “inactive”. The inhibition [40] was “inactive”, the inhibition [41] was “inactive” and the inhibition [42] was “inactive”. The inhibition [43] was “inactive”, the inhibition [44] was “inactive” and the inhibition [45] was “inactive”.
